Laboratory results published in BindingDB's records for doi:10.1021/jm301144g (Human Biomolecular Research Institute, 2012).
pIC50: −log10 of the molar value.

Biological target: TGF-beta receptor type-2 (Homo sapiens, UniProt P37173)
Assay: Inhibition of TGBR2 signaling in human HEK293T cells assessed as inhibition of SMAD activation after 2 to 22 hrs by dual Luciferase Assay

TGF-beta receptor type-2, sequence (P37173 whole entry): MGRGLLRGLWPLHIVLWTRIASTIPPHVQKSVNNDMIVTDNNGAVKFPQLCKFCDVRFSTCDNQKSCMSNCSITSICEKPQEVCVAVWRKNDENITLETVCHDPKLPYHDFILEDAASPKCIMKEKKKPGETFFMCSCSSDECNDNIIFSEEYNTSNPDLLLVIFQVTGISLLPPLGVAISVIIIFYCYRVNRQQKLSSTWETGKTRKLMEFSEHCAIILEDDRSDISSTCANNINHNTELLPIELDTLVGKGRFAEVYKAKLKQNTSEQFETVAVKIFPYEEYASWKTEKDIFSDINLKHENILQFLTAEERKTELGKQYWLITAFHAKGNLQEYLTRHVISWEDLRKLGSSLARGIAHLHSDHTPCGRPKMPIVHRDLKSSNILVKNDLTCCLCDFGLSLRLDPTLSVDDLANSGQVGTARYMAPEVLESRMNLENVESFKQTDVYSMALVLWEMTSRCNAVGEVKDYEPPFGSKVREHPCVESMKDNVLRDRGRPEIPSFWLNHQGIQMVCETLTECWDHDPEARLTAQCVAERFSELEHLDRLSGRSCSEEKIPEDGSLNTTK

pIC50: 6.34
Structure (SMILES): CCOC(=O)C1=C(C)N=C2CC(C)(C)CC(=O)C2C1c1ccc(-c2ccccc2)cc1 (stereo unspecified)
